Here are results for two compounds from PMC8348403 (Molecules, 2021).

Read-outs that look alike come from different tables or passages of the source.

A short description of data set [1]: Pharmacokinetic study of tamatinib in rats after oral fostamatinib (UPLC-MS/MS of plasma). Format: in vivo, Wistar male rats. As for the experimental part:
The analysis was performed on Waters® Acquity H-Class UPLC® tandem triple quadrupole mass spectrometer (TQD) (Waters, Milford, USA). The H-Class UPLC® system contained Acquity sample manager and Acquity quaternary solvent manager. TQD was equipped with electrospray ionization (ESI) probe. Samples were detected and quantified in multiple reaction monitoring (MRM) mode. […] Mobile phase composition was 10 mM ammonium acetate and acetonitrile (10:90). The mobile phase was adjusted at 0.25 mL/min. […] Samples were vortex-mixed for 30 s, and 1 mL of MTBE was added. All samples were vortex-mixed for 1 min, then centrifuged at 8 °C for 10 min at 4500 g. After centrifugation, the upper layer was transferred to 2 mL tubes and dried using a vacuum concentrator at 40 °C. The residue was reconstituted with 100 µL of the mobile phase and a volume of 5 µL was injected into the UPLC–MS/MS. Eight Wistar male rats weighing 210 ± 20 g (aged about 2 months) were provided by National Organization for Drug Control and Research, Cairo, Egypt. Rats were placed in cages in optimum conditions of humidity (40–60%) and temperature (22–26 °C) with regular 12 h day-night cycle. No diet was available for animals for 10 h prior and 1 h post drug administration. Water was available ad libitum. Rats were administered orally (using the gavage technique) 12.5 mg/kg (the middle dose used in the work of Clemens et al.) fostamatinib as a suspension in 1% sodium carboxymethylcellulose. Under light anesthesia, blood samples (0.3 mL) were collected from orbital sinus, in heparinized tube, at different time points; 0, 0.5, 1.0, 2.0, 3.0, 4.0, 6.0, 8.0, 12.0, 24.0, and 48.0 h after drug administration. Plasma samples were obtained by centrifugation at 3000 g for 3 min and kept frozen at −80 °C until analysis. Non-compartmental analysis with the trapezoidal rule was used for estimation of pharmacokinetic parameters. These parameters were calculated using WinNonlin software (Pharsight Co., Mountain View, CA, USA).

Data set [2] is classed as in vitro ADME. The note with it: rat. On the procedure: Short-term stability was evaluated at 22–25 °C for 6 h, which represented the processing time. Autosampler stability at ambient temperature for 24 h, long-term stability (−80 °C for 6 weeks), and three cycles of thaw and freeze (−80 and 25 °C) were evaluated. The actual concentrations of QCs samples (LQC, MQC, and HQC) under the stability test condition were compared against freshly prepared samples. Moreover, stock solution and working solution stability was evaluated at refrigerator temperature (4 °C) for 2 weeks.

Data set [3] relates to experimental nephrotoxic nephritis. On the set-up: method as in PMID 19959716. The note with it: rats; cited from earlier work.
Data set [4] has as its system collagen-induced arthritis. On the set-up: method as in PMID 17537677. Particulars: rodents; cited from earlier work.
Details of data set [5]: method as in PMID 23190017, PMID 20371637. Particulars: human intestinal microsomes; in vitro and in humans; cited from earlier work.
On the set-up of data set [6]: method as in PMID 19107952. The note with it: administration during pregnancy; cited from earlier work.
Data set [7] concerns lung tissue. The arrangement: method as in PMID 26148346. The note with it: treated mice; cited from earlier work.
Where [8] appears, read: male, Wistar, rat, plasma, po, 12.5 mg/kg.

In data set [1] (setting [8]), `COc1cc(Nc2ncc(F)c(Nc3ccc4c(n3)NC(=O)C(C)(C)O4)n2)cc(OC)c1OC` [Tamatinib, tamatinib] yielded an AUC(0-inf) of 6420 ± 1500 ng·h/mL. The compound also came in with a Cmax in data set [1] (setting [8]) of 653 ± 70.4 ng/mL. For the same compound, the mean residence time (MRT) in data set [1] (setting [8]) worked out at 19.8 ± 2.9 h. In data set [1] (setting [8]), the Tmax stood at 3 h. For the same compound, the half-life in data set [1] (setting [8]) was 18.3 ± 0.9 h. Moreover, the AUC(0-t) in data set [1] (male, Wistar, rat, plasma, po, 12.5 mg/kg, read-out: AUC0–48) came out at 5640 ± 1210 ng·h/mL. In data set [1] (tamatinib in plasma, oral fostamatinib 12.5 mg/kg, rats, mean ± SD), this compound displayed a Clearance of 0.030 ± 0.001 L/h. In addition, the Accuracy came out at 90.0% in data set [2] (0.3 ng/mL); 89.9% in data set [2] (75 ng/mL); 86.6% in data set [2] (750 ng/mL); 86.7% in data set [2] (6 weeks, 0.3 ng/mL); 88.1% in data set [2] (6 weeks, 75 ng/mL); 85.4% in data set [2] (6 weeks, 750 ng/mL). Further, the Accuracy in data set [2] (6 h, 0.3 ng/mL) came to 86.7%; in data set [2] (6 h, 75 ng/mL) it was 86.2%; in data set [2] (6 h, 750 ng/mL) it was 85.3%; in data set [2] (24 h, 0.3 ng/mL) it was 86.7%; in data set [2] (24 h, 75 ng/mL) it was 85.3%; in data set [2] (24 h, 750 ng/mL) it was 87.2%. For the same compound, the “Measured Concentration” value in data set [2] (0.3 ng/mL) is on record as 0.27 ± 0.01 ng/mL; in data set [2] (75 ng/mL) it was 67.40 ± 2.79 ng/mL; in data set [2] (750 ng/mL) it was 649.20 ± 69.95 ng/mL; in data set [2] (6 weeks, 0.3 ng/mL) it was 0.26 ± 0.02 ng/mL; in data set [2] (6 weeks, 75 ng/mL), 66.10 ± 7.77 ng/mL; in data set [2] (6 weeks, 750 ng/mL), 640.60 ± 73.94 ng/mL. The “Measured Concentration” value in data set [2] (6 h, 0.3 ng/mL) worked out at 0.26 ± 0.03 ng/mL; in data set [2] (6 h, 75 ng/mL), 64.65 ± 3.47 ng/mL; in data set [2] (6 h, 750 ng/mL) it was 640.10 ± 43.19 ng/mL; in data set [2] (24 h, 0.3 ng/mL), 0.26 ± 0.02 ng/mL; in data set [2] (24 h, 75 ng/mL), 64.00 ± 5.11 ng/mL; in data set [2] (24 h, 750 ng/mL), 654.34 ± 97.10 ng/mL. Also, the “effect in experimental nephrotoxic nephritis” value in data set [3] is “reduced glomerular macrophage infiltration, tissue injury, and proteinuria”. Further, the “effect in collagen-induced arthritis” value in data set [4] is “progressive improvement in histopathology, clinical scores, and joint radiography”.

In the case of `COc1cc(Nc2ncc(F)c(Nc3ccc4c(n3)N(COP(=O)(O)O)C(=O)C(C)(C)O4)n2)cc(OC)c1OC` [fostamatinib, Fostamatinib sodium], the transformation to tamatinib result in data set [5] is reported as “rapidly transformed to tamatinib”. In data set [6], the developmental toxicity result was “caused urogenital and cardiovascular abnormalities”. Moreover, the “fibrosis and inflammation in lung tissue” value in data set [7] was “less fibrosis and inflammation in lung tissue”.
